{"source": "patent US20200009185A1", "about": "“METHOD FOR MAINTAINING INCREASED […] p53 LEVEL, INDUCED BY […]-BASED […] DRUG, AND APPLICATION THEREOF” (priority 2015, published 2020)", "key": {"Hela cells [1]": {"test_system": "Hela cells", "assay": "Western blot of TP53 and HPV E6/E7 after HPV E6/E7 siRNA and cisplatin (Example 1-1)", "format": "cell-based, human", "details": "Hela cells transformed with HPV E6/E7 siRNA, 10 μM cisplatin for 24 hours; FIG. 1A", "procedure": "Cervical cancer cell and HeLa cervical cancer cell lines (HeLa; ATCC CCL-2) infected with HPV type 18 virus and SiHa cervical cancer cell lines (SiHa; ATCC HTB-35) infected with HPV type 16 virus were plated on a 6-well plate with 5×10^4 or 1×10^5 cells and cultured in RPMI 1640 or DMEM medium for 24 hours at 37° C. and 5% carbon dioxide, respectively. siRNA intracellular transfection was performed with DharmaFect (Dharmacon, Lafayette, Colo., USA) according to manufacturer's instructions.\nHeLa cervical carcinoma cells infected with HPV type 18 virus were transformed by pooling with each of siRNAs of 426 and 450 sequences, or respectively. The HPV type 16 virus-infected siHa cell line was transformed by pooling siRNAs of 366, 448 and 497 sequences, or respectively.\nIn the Western blot, whole-cell lysate was extracted with RIPA buffer (10 mM Tris ([…]), 0.15 M NaCl, 5 mM EDTA, 1% Triton X-100, 0.5% deoxycholic acid sodium salt and 0.1% SDS). After centrifugation, the protein concentration of the supernatant was measured using a BCA protein assay kit (Thermo Fisher Scientific Inc). Protein samples were placed in sample buffer and boiled for 5 minutes for complete denaturation. The samples were then applied to 6%, 10%, or 15% polyacrylamide gels and transferred to a 0.4 μm PVDF membrane (Milipore, Bilerica). […] Finally, the expression level of the protein was detected using ECL solution. […]"}, "CaSki cells [2]": {"test_system": "CaSki cells", "assay": "Western blot of TP53 and HPV E6/E7 after HPV E6/E7 siRNA and cisplatin (Example 1-1)", "format": "cell-based, human", "details": "CaSki cells transformed with HPV E6/E7 siRNA, 10 μM cisplatin for 24 hours; FIG. 1A"}, "CaSki cells [3]": {"test_system": "CaSki cells", "assay": "WST cell viability analysis (Example 1-2)", "format": "cell-based, human", "details": "CaSki cells transformed with HPV E6/E7 siRNA, 10 μM cisplatin 24 hours, vs group not treated with cisplatin; FIG. 1B", "procedure": "(§1) WST analysis was performed to confirm cell viability.\n(§2) Cell counts were determined by water soluble tetrazolium salts (WST) (EZ-Cytox kit; Daeil Lab Service, Seoul, Korea). EZ-Cytox solution (50 μl) added to each well of a 12-well plate and incubated for 2 to 3 hours. Live cells were measured (485 nm) using a GENios Pro microplate reader (Tecan Trading AG, Mannedorf, Switzerland) in a 96-well plate."}, "Hela cells [4]": {"test_system": "Hela cells", "assay": "WST cell viability analysis (Example 1-2)", "format": "cell-based, human", "details": "Hela cells transformed with HPV E6/E7 siRNA, 10 μM cisplatin 24 hours, vs group not treated with cisplatin; FIG. 1B", "procedure": "as §1, §2"}, "CaSki cells [5]": {"test_system": "CaSki cells", "assay": "TP53 and E2F luciferase reporter assay (Example 1-3)", "format": "cell-based, human", "details": "CaSki cells treated with cisplatin and HPV E6/E7 siRNA; FIG. 1C", "procedure": "(§3) The above luciferase reporter vector system was purchased from Clontech pathway profiling system (Mountain View, Calif., USA). Luciferase assay was performed using Dual-Luciferase Reporter Assay System (Promega) after 24 hours of transfection, and luminescence activity was measured using a GENios Pro microplate reader (Tecan Trading AG, Mannedorf, Switzerland)."}, "Hela cells [6]": {"test_system": "Hela cells", "assay": "TP53 and E2F luciferase reporter assay (Example 1-3)", "format": "cell-based, human", "details": "Hela cells treated with cisplatin and HPV E6/E7 siRNA; FIG. 1C", "procedure": "as §3"}, "CaSki cells [7]": {"test_system": "CaSki cells", "assay": "Western blot of TP53, RB, E6, E7 at time points (Example 1-4)", "format": "cell-based, human", "details": "CaSki cells transformed with HPV E6/E7 siRNA then treated with cisplatin; FIG. 1D, 1E", "from_the_text": "(§4) Cell lysates were then obtained and subjected to western blotting.\n(§5) In western blotting, antibodies of Santa Cruz Biotechnology ([…], Calif.) were used for TP53 [DO7], HPV 18-E6 [G7], HPV 16-E6 [C1P5], HPV 18-E7 [F7], HPV 16-E7 [ED17], E2F-1 [KH195], Cyclin-E [M20], β-Actin [C4] and antibody of BD Pharmingen was used for RB [554164], antibody of cell signaling was used for phospho-TP53 (ser-15) [9284]."}, "Hela cells [8]": {"test_system": "Hela cells", "assay": "Western blot of TP53, RB, E6, E7 at time points (Example 1-4)", "format": "cell-based, human", "details": "Hela cells transformed with HPV E6/E7 siRNA then treated with cisplatin; FIG. 1D, 1E", "from_the_text": "as §4, §5"}, "[9]": {"test_system": "human cervical cancer cells", "assay": "Tumor growth in animal model transplanted with human cervical cancer cells", "format": "in vivo", "details": "low concentration of cisplatin"}, "[10]": {"test_system": "cervical cancer cell lines", "assay": "Expression level of intracellular p53 over time in cervical cancer cell lines", "format": "cell-based"}}, "data": [{"smiles": "N.N.[Cl][Pt][Cl]", "note": "[cisplatin, cis-diamminedichloroplatinum [II]]", "values": [{"measurement": "amount of HPV E6/E7 protein expression", "setting": "Hela cells [1]", "result": "not observed"}, {"measurement": "amount of TP53 expression", "setting": "Hela cells [1]", "result": "increased"}, {"measurement": "amount of HPV E6/E7 protein expression", "setting": "CaSki cells [2]", "result": "not observed"}, {"measurement": "amount of TP53 expression", "setting": "CaSki cells [2]", "result": "increased"}, {"measurement": "cell viability", "setting": "CaSki cells [3]", "result": "decreased"}, {"measurement": "cell viability", "setting": "Hela cells [4]", "result": "decreased"}, {"measurement": "activity of E2F (luciferase reporter)", "setting": "CaSki cells [5]", "result": "further decrease"}, {"measurement": "activity of TP53 (luciferase reporter)", "setting": "CaSki cells [5]", "result": "increase"}, {"measurement": "activity of E2F (luciferase reporter)", "setting": "Hela cells [6]", "result": "further decrease"}, {"measurement": "activity of TP53 (luciferase reporter)", "setting": "Hela cells [6]", "result": "increase"}, {"measurement": "expression level of TP53", "setting": "CaSki cells [7]", "result": "increased"}, {"measurement": "expression level of pRB", "setting": "CaSki cells [7]", "result": "increased"}, {"measurement": "expression levels of 16-E6 and 16-E7", "setting": "CaSki cells [7]", "result": "decreased"}, {"measurement": "expression level of TP53", "setting": "Hela cells [8]", "result": "increased"}, {"measurement": "expression level of pRB", "setting": "Hela cells [8]", "result": "increased"}, {"measurement": "expression levels of 18-E6 and 18-E7", "setting": "Hela cells [8]", "result": "decreased"}, {"measurement": "tumor growth inhibitory effect", "setting": "[9]", "result": "no tumor growth inhibitory effect"}, {"measurement": "expression level of intracellular p53", "setting": "[10]", "result": "in the form of a pulse and repeatedly increased and decreased"}]}]}
